Test: Capsule shell integrity with NMP alone or NMP:stabilizing agent 1:1 (wt/wt), banded capsules, observed for leakage and shell cracking
Type: physicochemical
Details: NMP alone filled into size 0 hard gelatin capsule
Protocol: NMP was filled into a size 0 hard gelatin capsule in order to determine the effect of NMP on the integrity of the shell.
To stabilize the capsule shell in presence of solution of NMP, various capsule stabilizing agents were studied for their stability inducing properties. Stabilizing agents were each incorporated into NMP separately. Formulations were prepared by mixing or dissolving each excipient in a vial containing NMP with a 1:1 ratio (wt/wt). The solutions were then encapsulated into size 0 hard gelatin capsules and banded to prevent leakage of the fill contents. Capsules were stored at ambient environment and observations were made at regular time intervals for leakage and capsule shell cracking.

## CN1CCCC1=O [#1, N-methyl-2-pyrrolidone]
  Effect of NMP on the integrity of the capsule shell: Within minutes, the capsule cracked causing the content to leak out
